Results: patent US20240246934A1, “QUINAZOLINE-BASED COMPOUND, COMPOSITION, AND APPLICATION OF QUINAZOLINE-BASED COMPOUND” (BEIJING SCITECH-MQ PHARMACEUTICALS LIMITED, priority 2021, published 2024)

Tests used:
HER2 kinase = target: T1, HER2 kinase (Homo sapiens, UniProt P04626); experiment: HER2 kinase assay (ULight/PT66 TR-FRET); assay type: biochemical
T1 construct: purchased Carna Biosciences 08-016
Description: (§1) Preparation of compound solution: The assay compound was dissolved in DMSO to form a 10 mM stock solution. Prior to use, the compound was diluted to 0.25 mM in DMSO (100 times the final concentration of the diluent) and then subjected to a 3-fold concentration gradient dilution to obtain a total of 11 concentrations. The solution was diluted with buffer to a diluent with 4× the final concentration when the compound was added.
(§2) HER2 kinase assay: buffer was prepared, and 40 nM 4×Her2 kinase solution, 40 μM 4×ATP solution, and 400 nM 4×ULight™-labeled Ploy GT Peptide substrate solution were prepared using the buffer. After the preparation was completed, the enzyme was mixed with different concentrations of compounds pre-prepared by dilution, and the mixture was left to stand at room temperature for 5 min. Each concentration was performed in duplicate. The corresponding substrate and ATP were added and the mixture was reacted at room temperature for 120 minutes (with negative and positive controls). After completion of the reaction, PT66 detection antibody was added. The mixture was incubated at room temperature for 60 minutes, and then detected by Envision.
(§3) Compound concentrations and corresponding inhibition rates were input into GraphPad Prism for processing to calculate IC50 values.

EGFR^WT kinase = EGFR^WT kinase (Homo sapiens, UniProt P00533); experiment: EGFR^WT kinase assay (ULight/PT66 TR-FRET); assay type: biochemical
Chain of EGFR^WT kinase (P00533 25-1210): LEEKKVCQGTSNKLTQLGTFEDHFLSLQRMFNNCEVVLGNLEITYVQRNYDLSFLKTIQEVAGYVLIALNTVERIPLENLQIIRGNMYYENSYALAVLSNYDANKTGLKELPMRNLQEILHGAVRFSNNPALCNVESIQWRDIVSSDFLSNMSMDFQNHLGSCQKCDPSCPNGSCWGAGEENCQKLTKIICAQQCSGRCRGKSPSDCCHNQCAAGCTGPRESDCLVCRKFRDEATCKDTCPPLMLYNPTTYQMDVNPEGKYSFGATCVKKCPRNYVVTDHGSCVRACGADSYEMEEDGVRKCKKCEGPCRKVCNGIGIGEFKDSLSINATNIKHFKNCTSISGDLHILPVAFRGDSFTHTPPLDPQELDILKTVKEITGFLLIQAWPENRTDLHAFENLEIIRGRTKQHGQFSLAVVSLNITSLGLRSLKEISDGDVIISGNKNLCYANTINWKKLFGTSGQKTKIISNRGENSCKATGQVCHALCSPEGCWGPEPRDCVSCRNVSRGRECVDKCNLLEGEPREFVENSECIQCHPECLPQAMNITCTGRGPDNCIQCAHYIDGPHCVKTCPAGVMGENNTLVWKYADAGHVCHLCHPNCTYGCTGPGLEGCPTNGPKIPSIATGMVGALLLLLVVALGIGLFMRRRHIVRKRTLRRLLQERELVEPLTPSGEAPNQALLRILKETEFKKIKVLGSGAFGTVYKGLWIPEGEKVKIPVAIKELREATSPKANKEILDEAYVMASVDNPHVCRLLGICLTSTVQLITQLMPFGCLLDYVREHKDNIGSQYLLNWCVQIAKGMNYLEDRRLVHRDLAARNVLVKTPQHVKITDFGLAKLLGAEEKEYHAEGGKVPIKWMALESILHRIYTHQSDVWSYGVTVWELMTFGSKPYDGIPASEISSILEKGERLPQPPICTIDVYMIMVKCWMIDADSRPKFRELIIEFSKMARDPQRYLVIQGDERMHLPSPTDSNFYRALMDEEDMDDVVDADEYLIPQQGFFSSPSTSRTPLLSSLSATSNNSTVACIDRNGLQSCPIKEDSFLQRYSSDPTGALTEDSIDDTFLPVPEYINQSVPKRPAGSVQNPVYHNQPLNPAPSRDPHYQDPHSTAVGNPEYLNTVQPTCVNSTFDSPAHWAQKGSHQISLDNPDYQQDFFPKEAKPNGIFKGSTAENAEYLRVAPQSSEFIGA
Description: as §1
as §2, with “EGFR^WT kinase assay:” for “HER2 kinase assay:”, “prepared, and 3.48 nM 4×EGFR” for “prepared, and 40 nM 4×Her2”, “3.48 nM 4×EGFR kinase solution,” for “40 nM 4×Her2 kinase solution,”, “kinase solution, 600 μM 4×ATP” for “kinase solution, 40 μM 4×ATP”, “nM 4×ULight™-labeled JAK-1 (Try1023) Peptide substrate” for “nM 4×ULight™-labeled Ploy GT Peptide substrate”
as §3

[1] = target: Ba/F3 HER2 A775_G776insYVMA cells (Homo sapiens, UniProt P04626, DUP772-775, cells depend on it); experiment: Inhibition of cell proliferation, CTG method, Ba/F3 HER2 A775_G776insYVMA; assay type: cell-based; details: 72 hours, read-out: Ba/F3 HER2 A775-G776insYVMA IC50
Chain of Ba/F3 HER2 A775_G776insYVMA cells (P04626 with tags, fused parts or gaps DUP772-775): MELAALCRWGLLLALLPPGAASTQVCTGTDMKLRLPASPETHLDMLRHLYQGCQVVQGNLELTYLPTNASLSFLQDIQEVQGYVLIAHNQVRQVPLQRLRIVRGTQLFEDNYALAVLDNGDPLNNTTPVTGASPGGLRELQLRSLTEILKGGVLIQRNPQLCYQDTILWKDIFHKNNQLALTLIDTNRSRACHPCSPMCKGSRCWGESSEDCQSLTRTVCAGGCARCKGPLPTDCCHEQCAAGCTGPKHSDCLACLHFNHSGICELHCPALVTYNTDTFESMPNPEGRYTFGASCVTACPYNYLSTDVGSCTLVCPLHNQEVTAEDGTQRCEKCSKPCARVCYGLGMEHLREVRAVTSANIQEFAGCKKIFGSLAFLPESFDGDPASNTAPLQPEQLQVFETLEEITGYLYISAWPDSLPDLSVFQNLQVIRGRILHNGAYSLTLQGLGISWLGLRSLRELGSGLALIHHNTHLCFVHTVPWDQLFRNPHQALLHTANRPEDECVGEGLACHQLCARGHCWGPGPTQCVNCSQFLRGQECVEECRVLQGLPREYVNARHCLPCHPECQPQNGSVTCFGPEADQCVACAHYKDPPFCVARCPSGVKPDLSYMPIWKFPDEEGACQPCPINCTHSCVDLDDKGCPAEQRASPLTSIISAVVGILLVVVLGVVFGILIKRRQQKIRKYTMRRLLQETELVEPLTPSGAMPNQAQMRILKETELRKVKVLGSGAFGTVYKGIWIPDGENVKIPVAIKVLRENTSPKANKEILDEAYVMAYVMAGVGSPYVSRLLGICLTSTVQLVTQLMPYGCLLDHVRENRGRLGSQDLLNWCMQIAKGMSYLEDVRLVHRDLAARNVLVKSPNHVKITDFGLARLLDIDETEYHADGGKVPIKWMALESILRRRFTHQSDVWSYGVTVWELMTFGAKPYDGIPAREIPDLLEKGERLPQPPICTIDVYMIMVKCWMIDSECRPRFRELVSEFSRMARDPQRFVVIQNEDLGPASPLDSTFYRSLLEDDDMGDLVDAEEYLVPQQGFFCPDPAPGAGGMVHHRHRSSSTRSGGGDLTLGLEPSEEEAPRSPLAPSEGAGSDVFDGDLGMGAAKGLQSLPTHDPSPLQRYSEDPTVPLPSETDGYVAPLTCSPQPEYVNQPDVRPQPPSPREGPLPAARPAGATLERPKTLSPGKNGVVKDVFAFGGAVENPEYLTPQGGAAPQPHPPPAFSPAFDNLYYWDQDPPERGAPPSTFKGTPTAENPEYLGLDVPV
Description: The present application examined the in vitro anti-proliferative activity of the compounds of the present disclosure against in vitro cultured BT474, NCI-N87, Ba/F3-EGFR-VIII and Ba/F3 HER2 A775_G776insYVMA and Ba/F3 EGFR D770_N771insSVD cell lines by CTG method.
Cell lines: BT474 (from the cell bank of Chinese Academy of Sciences), NCI-N87 (from ATCC), Ba/F3-EGFR-VIII, Ba/F3 HER2 A775_G776insYVMA and Ba/F3 EGFR D770_N771insSVD (all from KYinno Biotechnology (Beijing) Co., Ltd.); all of the above cells were cultured with RPMI1640 medium containing 10% fetal bovine serum, 100 U/mL penicillin, and 100 μg/mL streptomycin in the culture process.
1. The assay compound was dissolved with DMSO to form a stock solution and a gradient dilution was performed, followed by dilution with the corresponding medium to obtain a solution with 5-fold working concentration.
2. Cells in logarithmic growth phase were adjusted to specific cell densities by dilution with culture medium, and 80 μL of cell suspension was added to a 96-well plate, such that plating densities of cells of BT474, NCI-N87, Ba/F3-EGFR-VIII, Ba/F3 HER2 A775_G776insYVMA and Ba/F3 EGFR D770_N771insSVD were all 3000 cells/well. The cells of Ba/F3-EGFR-VIII, Ba/F3 HER2 A775_G776insYVMA and Ba/F3 EGFR D770_N771insSVD were used directly in the next step (treatment with compound), whereas the BT474 and NCI-N87 needed to be cultured overnight in a 37° C., 5% carbon dioxide gas incubator to adhere to the wall, and then treated with compounds.
3. […] The highest concentration of the assayed compound was 10 μM, 4-fold serial dilution, a total of 9 concentrations, and duplicate wells. A control group without compound was also set up.
4. The cells were cultured for another 72 hours, and then cell viability was detected by CTG assay kit. Signal values were read with a multifunctional plate reader (Perkin Elmer). GraphPad Prism software was used to create a dose-response curve and IC50 was calculated.

[2] = Pharmacokinetics in SD rats, single intravenous injection and oral administration; assay type: in vivo, SD rat
Description: In this assay, the pharmacokinetic characteristics of the compounds of the present application were assayed after administration of some of the compounds of the present application to SD rats by single oral administration and intravenous injection. 1. […] The mixture was stirred, vortexed and/or sonicated. Once a solution was obtained, the vehicle was gradually added to a final volume to reach the target concentration. The solution was vortexed, and sonicated to obtain a homogeneous solution. The solution was filtered through a 0.22 μm PVDF membrane. 2. […] The mixture was stirred, vortexed and/or sonicated. Once a solution was obtained, the vehicle was gradually added to a final volume to reach the target concentration. The solution was vortexed, and sonicated to obtain a homogeneous solution. […] Meanwhile, the IV group was not fasted and the PO group was fasted overnight (>12 hrs) and given food 2 hrs after drug administration. All animals had free access to water. The dosing regimen and pharmacokinetic sampling regimen are given in Table 6 and Table 7 below, respectively. […] Rats were administered according to the above regimen, and blood and brain tissue samples were collected and processed at predetermined time points (collection and processing were performed according to conventional methods in the art). […] The supernatant was diluted 2-fold with ultra-pure water, and the samples were analyzed by LC/MS. Pharmacokinetic parameters was calculated using WinNonlin software. The following pharmacokinetic parameters was calculated from the plasma drug concentration-time data: CL (clearance); Vd (apparent volume of distribution); T1/2 (elimination half-life time); Cmax (peak concentration); Tmax (time to peak); AUC (area under plasma drug concentration-time curve); MRT (mean retention time); F % (bioavailability).

[3] = SD, rat, whole blood, IV 3 mg/kg

T1 sequence (P04626 23-1255): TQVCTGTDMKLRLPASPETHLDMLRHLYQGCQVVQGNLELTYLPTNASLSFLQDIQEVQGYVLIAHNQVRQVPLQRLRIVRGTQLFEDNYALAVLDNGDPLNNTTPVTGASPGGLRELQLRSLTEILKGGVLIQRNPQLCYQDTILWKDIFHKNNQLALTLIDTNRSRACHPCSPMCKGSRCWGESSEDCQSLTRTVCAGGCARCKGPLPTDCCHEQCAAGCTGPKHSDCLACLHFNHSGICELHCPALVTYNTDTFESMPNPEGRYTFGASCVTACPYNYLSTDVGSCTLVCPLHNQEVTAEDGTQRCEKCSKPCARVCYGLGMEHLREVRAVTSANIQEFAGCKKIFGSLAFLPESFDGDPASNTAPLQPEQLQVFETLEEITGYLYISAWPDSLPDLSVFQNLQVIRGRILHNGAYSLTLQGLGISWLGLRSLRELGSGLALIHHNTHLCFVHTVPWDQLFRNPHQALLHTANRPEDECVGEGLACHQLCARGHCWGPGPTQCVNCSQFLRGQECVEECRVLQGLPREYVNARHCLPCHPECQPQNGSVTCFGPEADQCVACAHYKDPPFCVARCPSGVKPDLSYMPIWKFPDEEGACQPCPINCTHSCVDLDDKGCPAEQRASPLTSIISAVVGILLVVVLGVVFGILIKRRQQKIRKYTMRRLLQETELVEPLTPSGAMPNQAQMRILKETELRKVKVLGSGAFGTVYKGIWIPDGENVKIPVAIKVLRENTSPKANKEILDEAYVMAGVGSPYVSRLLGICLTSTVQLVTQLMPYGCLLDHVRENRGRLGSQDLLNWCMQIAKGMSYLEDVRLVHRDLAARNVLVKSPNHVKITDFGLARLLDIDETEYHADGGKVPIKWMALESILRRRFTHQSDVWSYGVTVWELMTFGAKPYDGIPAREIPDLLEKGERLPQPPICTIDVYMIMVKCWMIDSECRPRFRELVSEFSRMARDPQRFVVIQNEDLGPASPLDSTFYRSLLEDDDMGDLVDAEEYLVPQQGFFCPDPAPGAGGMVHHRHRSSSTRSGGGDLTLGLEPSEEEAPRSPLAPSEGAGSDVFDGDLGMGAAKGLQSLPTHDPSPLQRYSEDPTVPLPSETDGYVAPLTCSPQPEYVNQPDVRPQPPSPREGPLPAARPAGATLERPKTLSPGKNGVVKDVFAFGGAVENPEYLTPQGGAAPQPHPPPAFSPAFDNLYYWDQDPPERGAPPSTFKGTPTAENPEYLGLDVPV

Row | SMILES | IC50 (HER2 kinase) [µM] | IC50 (EGFR^WT kinase) [µM] | GI50 [1] [µM] | also measured
1 | CN1CCC[C@@H]1/C=C/C(=O)Nc1ccc2ncnc(Nc3ccc(OCc4ccccn4)c(Cl)c3)c2c1OC1CCC1 [Example 39, (R,E)-N-(4-((3-chloro-4-(pyridin-2-ylmethoxy)phenyl)amino)-5-cyclobutoxyquinazolin-6-yl)-3-(1-methylpyrrolidin-2-yl)acrylamide] | < 0.01 | < 0.01 | 0.001 to 0.005 | 
2 | COc1c(NC(=O)/C=C/CN(C)C2CCC2)ccc2ncnc(Nc3ccc(OCc4ccccn4)c(Cl)c3)c12 [Example 3, (E)-N-(4-((3-chloro-4-(pyridin-2-ylmethoxy)phenyl)amino)-5-methoxyquinazolin-6-yl)-4-(cyclobutyl(methyl)amino)but-2-enamide] | < 0.01 | < 0.01 | 0.001 to 0.005 | 
3 | CCOc1c(NC(=O)/C=C/[C@H]2CCCN2CC)ccc2ncnc(Nc3ccc(OCc4cccc(F)c4)c(Cl)c3)c12 [Example 19, (R,E)-N-(4-((3-chloro-4-(3-fluorobenzyloxy)phenyl)amino)-5-ethoxyquinazolin-6-yl)-3-(1-ethylpyrrolidin-2-yl)acrylamide] | < 0.01 | < 0.01 | 0.001 to 0.005 | 
4 | COc1c(NC(=O)/C=C/CN2CCCCC2)ccc2ncnc(Nc3ccc(OCc4ccccn4)c(Cl)c3)c12 [Example 44, (E)-N-(4-((3-chloro-4-(pyridin-2-ylmethoxy)phenyl)amino)-5-methoxyquinazolin-6-yl)-4-(piperidin-1-yl)but-2-enamide] | < 0.01 |  |  | 
5 | CN1CCC[C@@H]1/C=C/C(=O)Nc1ccc2ncnc(Nc3ccc(OCc4ccccn4)c(Cl)c3)c2c1OCCF [Example 7, (R,E)-N-(4-((3-chloro-4-(pyridin-2-ylmethoxy)phenyl)amino)-5-(2-fluoroethoxy)quinazolin-6-yl)-3-(1-methylpyrrolidin-2-yl)acrylamide] | < 0.01 | < 0.01 | 0.001 to 0.005 | 
6 | CN1CCC[C@@H]1/C=C/C(=O)Nc1ccc2ncnc(Nc3ccc(OCc4ccccn4)c(Cl)c3)c2c1OC1CC1 [Example 37, (R,E)-N-(4-((3-chloro-4-(pyridin-2-ylmethoxy)phenyl)amino)-5-cyclopropoxyquinazolin-6-yl)-3-(1-methylpyrrolidin-2-yl)acrylamide] | < 0.01 | 0.01 to 0.1 | 0.001 to 0.005 | 
7 | CN1CCC[C@@H]1/C=C/C(=O)Nc1ccc2ncnc(Nc3ccc(OCc4ccccn4)c(Cl)c3)c2c1OCC1CC1 [Example 38, (R,E)-N-(4-((3-chloro-4-(pyridin-2-ylmethoxy)phenyl)amino)-5-(cyclopropylmethoxy)quinazolin-6-yl)-3-(1-methylpyrrolidone-2-yl)acrylamide] | < 0.01 | < 0.01 | 0.001 to 0.005 | 
8 | CN1CCC[C@@H]1/C=C/C(=O)Nc1ccc2ncnc(Nc3ccc(OCc4cccc(F)c4)c(Cl)c3)c2c1OC1CC1 [Example 41, (R,E)-N-(4-((3-chloro-4-((3-fluorobenzyl)oxy)phenyl)amino)-5-cyclopropoxyquinazolin-6-yl)-3-(1-methylpyrrolidone-2-yl)acrylamide] | < 0.01 |  | 0.001 to 0.005 | 
9 | COc1cccc(COc2ccc(Nc3ncnc4ccc(NC(=O)/C=C/[C@H]5CCCN5C)c(OC)c34)cc2Cl)n1 [Example 27, (R,E)-N-(4-((3-chloro-4-((6-methoxypyridin-2-yl)methoxy)phenyl)amino)-5-methoxyquinazolin-6-yl)-3-(1-methylpyrrolidin-2-yl)acrylamide] | < 0.01 | 0.01 to 0.1 | 0.001 to 0.005 | 
10 | COCCCCOc1c(NC(=O)/C=C/[C@H]2CCCN2C)ccc2ncnc(Nc3ccc(OCc4ccccn4)c(Cl)c3)c12 [Example 23, (R,E)-N-(4-((3-chloro-4-(pyridin-2-ylmethoxy)phenyl)amino)-5-(4-methoxybutoxy)quinazolin-6-yl)-3-(1-methylpyrrolidin-2-yl)acrylamide] | < 0.01 | 0.1 to 1 | 0.001 to 0.005 | 
11 | CCOc1c(NC(=O)/C=C/[C@H]2CCCN2CC)ccc2ncnc(Nc3ccc(OCc4ccccn4)c(Cl)c3)c12 [Example 20, (R,E)-N-(4-((3-chloro-4-(pyridin-2-ylmethoxy)phenyl)amino)-5-ethoxyquinazolin-6-yl)-3-(1-ethylpyrrolidin-2-yl)acrylamide] | < 0.01 | < 0.01 | 0.001 to 0.005 | 
12 | CC(C)COc1c(NC(=O)/C=C/[C@H]2CCCN2C)ccc2ncnc(Nc3ccc(OCc4ccccn4)c(Cl)c3)c12 [Example 14, (R,E)-N-(4-((3-chloro-4-(pyridin-2-ylmethoxy)phenyl)amino)-5-isobutoxyquinazolin-6-yl)-3-(1-methylpyrrolidin-2-yl)acrylamide] | < 0.01 | < 0.01 | 0.001 to 0.005 | 
13 | COc1c(NC(=O)/C=C/[C@H]2CCCN2C2CCC2)ccc2ncnc(Nc3ccc(OCc4ccccn4)c(Cl)c3)c12 [Example 42, (R,E)-N-(4-((3-chloro-4-(pyridin-2-ylmethoxy)phenyl)amino)-5-methoxyquinazolin-6-yl)-3-(1-cyclobutylpyrrolidin-2-yl)acrylamide] | < 0.01 | 0.1 to 1 |  | 
14 | CN1CCC[C@@H]1/C=C/C(=O)Nc1ccc2ncnc(Nc3ccc(OCc4ccccn4)c(Cl)c3)c2c1OC1CCOC1 (stereo partly drawn) [Example 40, (E)-N-(4-((3-chloro-4-(pyridin-2-ylmethoxy)phenyl)amino)-5-((tetrahydrofuran-3-yl)oxy)quinazolin-6-yl)-3-((R)-1-methylpyrrolidin-2-yl)acrylamide] | < 0.01 | < 0.01 | 0.001 to 0.005 | 
15 | CN1CCC[C@@H]1/C=C/C(=O)Nc1ccc2ncnc(Nc3ccc(OCc4ccccn4)c(Cl)c3)c2c1 [Control compound 1, reference compound] |  |  |  | Cl_obs ([2]; IV 3 mg/kg): 72.7 ± 7.1 mL/min/kg; AUC(0-inf) [2, 3]: 693 ± 72 ng·h/mL; AUC(0-t) [2, 3]: 678 ± 74 ng·h/mL; Vd [2, 3]: 31 ± 4.6 L/kg; half-life [2, 3]: 4.91 ± 0.28 h; oral absorption (in words) ([2]; administrated orally): hardly absorbed
16 | COc1c(NC(=O)/C=C/CN2CCCC2)ccc2ncnc(Nc3ccc(OCc4ccccn4)c(Cl)c3)c12 [Example 43, (E)-N-(4-((3-chloro-4-(pyridin-2-ylmethoxy)phenyl)amino)-5-methoxyquinazolin-6-yl)-4-(pyrrolidine-1-yl)but-2-enamide] | < 0.01 |  |  | 
